Assay results published in patent US20170234889A1, “hGH Determination for Use to Guide Prevention of a Major Adverse Cardiac Event or a Cardiovascular Disease in a Subject” (Sphingotec GmbH, priority 2014, published 2017).

Experiments:
Type in all cases: in vivo, human
[1] = tested on: patients with acute myocardial infarction; assay: AMI cohort: Cox regression and Kaplan-Meier analysis for MACE at 2 years post-AMI
Experimental: We studied 953 STEMI and NSTEMI patients admitted to University Hospitals of Leicester NHS trust between August 2004 and April 2007. This observational cohort study complied with the Declaration of Helsinki and was approved by the local ethics committee; written informed consent was obtained from patients. […] Patients with known malignancy, renal replacement therapy or surgery in the previous month were excluded. Estimated glomerular filtration rate (eGFR) was calculated from the simplified Modification of Diet in Renal Disease formula (Smilde T D, van Veldhuisen D J, Navis G, Voors A A, Hillege H L. Drawbacks and prognostic value of formulas estimating renal function in patients with chronic heart failure and systolic dysfunction. Circulation 2006; 114:1572-80). All patients received standard medical treatment and revascularisation was at the discretion of the attending physician.
Plasma samples: Blood samples (anticoagulated with EDTA and aprotinin) were drawn after 15 minutes bed rest, immediately after diagnosis and within 36 h of symptom onset. Plasma was stored at −80° C. until assayed in a single batch for blinded determination of plasma hGH.
During follow-up over 2 years, there were 281 MACE, the primary composite endpoint (comprising 117 deaths, 71 HF hospitalisations and 93 re-AMIs). […]

[2] = tested on: subjects with plaque in the right carotid artery but no symptoms of carotid artery disease; assay: BCAPS: fasting plasma hs-GH under treatment; conditions: for Growth Hormone - females, geometric mean / Growth Hormone - males, geometric mean: 12 months of treatment, fasting plasma
Excerpt: The β-Blocker Cholesterol-Lowering Asymptomatic Plaque Study (BCAPS) was a randomized, double blind, placebo-controlled, single-center clinical trial that took place between 1994 and 1999. A detailed description of BCAPS can be found in the original paper (Hedblad et al. 2001. Circulation 103: 1721-1726), following here is a brief summary. The original study population consisted of 361 men and 432 women (total n=793) 49 to 70 years of age recruited from MDC-CC. Subjects included in BCAPS had plaque in the right carotid artery but no symptoms of carotid artery disease. Exclusion criteria were: myocardial infarction, angina pectoris or stroke within the previous 3 months; previous surgery in the right carotid artery; regular use of β-blockers or statins; blood pressure >160 (systolic) or >95 (diastolic) mm Hg; total cholesterol >8.0 mmol/l; hyperglycemia suspected to require insulin treatment; and conditions that in the view of the investigator made the participant unsuitable for the trial. The study consisted of 4 different treatment groups and the participants were randomized to 1 of the following: placebo/placebo, metoprolol CR/XL (25 mg once daily)/placebo, fluvastatin (40 mg once daily)/placebo or metoprolol CR/XL (25 mg once daily)/fluvastatin (40 mg once daily). The treatment period was 36-months. Fasting blood samples were drawn at baseline and at 12, 24 and 36 months. HDL-C, total cholesterol and TG were measured according to standard procedures at the Department of Clinical Chemistry, University Hospital of Malmö. LDL-C levels were calculated according to the Friedewald formula. GH levels were measured in stored fasting plasma samples, which were frozen immediately to −80° C. at the different examinations. A number of the samples stored in the freezer were missing or had insufficient plasma for the analysis of hs-GH. Subjects in which either the baseline-value of GH or the 12-month value of GH was missing were excluded from further analysis. After this adjustment the study consisted of 472 individuals. All samples were measured using the hs-hGH immunoassay as described above. In the analyses where treatment groups are compared, the groups are either the 4 randomization groups or they are divided in to 2 groups which are fluvastatin vs non-fluvastatin (i.e placebo) or metoprolol vs non-metoprolol. Since fasting hs-GH is known to differ between men and women all models were performed separate for men and women as well as combined. All models were adjusted for age, sex (if not already gender separated) and the natural logarithm of the fasting level of hs-GH at baseline. To investigate if fasting hs-GH was affected by treatment with fluvastatin or metoprolol we performed multiple regression analysis with ΔGH (baseline value subtracted from 12 month value) as the dependent variable and the treatment groups as independent variables.

[3] = tested on: subjects with plaque in the right carotid artery but no symptoms of carotid artery disease; assay: BCAPS: LDL-C under treatment; conditions: 12 months of treatment
Excerpt: The β-Blocker Cholesterol-Lowering Asymptomatic Plaque Study (BCAPS) was a randomized, double blind, placebo-controlled, single-center clinical trial that took place between 1994 and 1999. A detailed description of BCAPS can be found in the original paper (Hedblad et al. 2001. Circulation 103: 1721-1726), following here is a brief summary. The original study population consisted of 361 men and 432 women (total n=793) 49 to 70 years of age recruited from MDC-CC. Subjects included in BCAPS had plaque in the right carotid artery but no symptoms of carotid artery disease. […] HDL-C, total cholesterol and TG were measured according to standard procedures at the Department of Clinical Chemistry, University Hospital of Malmö. LDL-C levels were calculated according to the Friedewald formula. GH levels were measured in stored fasting plasma samples, which were frozen immediately to −80° C. at the different examinations. […] All samples were measured using the hs-hGH immunoassay as described above.

[4] = tested on: subjects with plaque in the right carotid artery but no symptoms of carotid artery disease; assay: BCAPS: carotid ultrasound intima media thickness (IMT); conditions: 36 months; for IMTbulb, median: maximum IMT at the carotid bifurcation; for IMTcca, median: mean IMT in the common carotid artery
Excerpt: The β-Blocker Cholesterol-Lowering Asymptomatic Plaque Study (BCAPS) was a randomized, double blind, placebo-controlled, single-center clinical trial that took place between 1994 and 1999. A detailed description of BCAPS can be found in the original paper (Hedblad et al. 2001. Circulation 103: 1721-1726), following here is a brief summary. The original study population consisted of 361 men and 432 women (total n=793) 49 to 70 years of age recruited from MDC-CC. Subjects included in BCAPS had plaque in the right carotid artery but no symptoms of carotid artery disease. Exclusion criteria were: myocardial infarction, angina pectoris or stroke within the previous 3 months; previous surgery in the right carotid artery; regular use of β-blockers or statins; blood pressure >160 (systolic) or >95 (diastolic) mm Hg; total cholesterol >8.0 mmol/l; hyperglycemia suspected to require insulin treatment; and conditions that in the view of the investigator made the participant unsuitable for the trial. The study consisted of 4 different treatment groups and the participants were randomized to 1 of the following: placebo/placebo, metoprolol CR/XL (25 mg once daily)/placebo, fluvastatin (40 mg once daily)/placebo or metoprolol CR/XL (25 mg once daily)/fluvastatin (40 mg once daily). Carotid ultrasound was performed at baseline, 18 and 36 months (Hedblad et al. 2001. Circulation 103: 1721-1726). In brief, a predefined extent of the right carotid bifurcation was scanned for presence of plaques and the maximum IMT at the bifurcation (IMTbulb) and the mean IMT in the common carotid artery ([…]) was measured.

[5] = FEMALE, all receiving the drug vs individuals not receiving it
[6] = FEMALE, model All groups, each compared against placebo
[7] = MALE, all receiving the drug vs individuals not receiving it
[8] = MALE, model All groups, each compared against placebo
[9] = gender ALL, all receiving the drug vs individuals not receiving it
[10] = gender ALL, model All groups, each compared against placebo

SMILES | Univariable HR (95% CI) for MACE [1] | Growth Hormone - females, geometric mean [2] | Growth Hormone - males, geometric mean [2] | B, multiple linear regression of ΔGH (12 months - baseline) vs treatment group [2, 5] | B, multiple linear regression of ΔGH (12 months - baseline) vs treatment group [2, 6] | B, multiple linear regression of ΔGH (12 months - baseline) vs treatment group [2, 7] | B, multiple linear regression of ΔGH (12 months - baseline) vs treatment group [2, 8] | B, multiple linear regression of ΔGH (12 months - baseline) vs treatment group [2, 9] | B, multiple linear regression of ΔGH (12 months - baseline) vs treatment group [2, 10] | LDL-C, mean [3] | IMTbulb, median [4] | IMTcca, median [4]
CC(=O)Oc1ccccc1C(=O)O [Aspirin] | 0.54 (0.41-0.72) | – | – | – | – | – | – | – | – | – | – | –
CC(C)n1c(/C=C/C(O)CC(O)CC(=O)O)c(-c2ccc(F)cc2)c2ccccc21 (centres unmarked) [Fluvastatin] | – | 810 pg/mL | 160 pg/mL | 0.41 | 0.02 | −0.37 | −0.36 | 0.12 | −0.11 | 3.27 mmol/L | 2.02 | 0.87
COCCc1ccc(OCC(O)CNC(C)C)cc1 (centres unmarked) [Metoprolol] | – | 860 pg/mL | 170 pg/mL | 0.33 | −0.06 | −0.27 | −0.26 | 0.13 | −0.11 | 4.17 mmol/L | 1.89 | 0.90
